Assay results as given in patent publication US20040019060A1, “Sigma receptor ligands and their medical uses” (priority 2000, published 2004).
Structures can show the parent of a compound that is named as a salt.

What was measured:
[1] = test system: human microvascular endothelial cells (HMEC-1); test: Proliferation assay in HMEC-1 (phosphatase activity); assay type: cell-based; conditions: 168 h, read-out: IC50 (dose required to inhibit proliferation to 50% of control), HMEC-1, FIG. 2a, assay on day 7
Method: HMEC-1 (immortalised human microvascular endothelial cells) obtained from Dr Colin Porter, Chester Beatty Laboratories were grown in TCS Biologicals Microvascular Endothelial Cell Basal Medium (ZHM-2946) with supplement (ZHS-8947). This contains heparin, hydrocortisone, human EGF, human bFGF, dibutyryl cyclic AMP (concentrations not disclosed by the Company) with added 5% FCS, pH 7.4.
The cells were seeded at 2×10^4 ml in 96 well microtitre plates on day 0, and sigma ligands were added in fresh medium on day 1. […] PCS at the concentrations indicated was present throughout the assay. Each concentration of drug was assayed in triplicate, and the vehicle concentration was kept constant.
Viable cells present at the end of the assay were estimated by determining phosphatase activity as follows: 100Xl of paranitrophenylphosphate (Sigma) at 3 mg/ml in phosphate buffer pH 5.5 containing 0.1% Triton X100 was added to wells and incubated for 2hr at 37° C. The reaction was stopped with 1N NaOH. Released paranitrophenol, indicative of attached cell number, was measured by reading the absorbance at 405 nm in a Titertek multiscan. “Background” counts (which were very low) were subtracted, and the survival in drug treated wells compared with that of control wells. The 100% value is the mean absorbance of control wells treated with vehicle alone; the 0% value is that of wells containing medium only.

[2] = test system: Human endothelial cells co-cultured with human "feeder" fibroblasts; test: In vitro angiogenesis assay (pseudocapillary formation, anti-CD31 staining); assay type: cell-based
Method: Human endothelial cells co-cultured with human “feeder” fibroblasts on a fibrin matrix in 24 well plates were incubated with ligands at different concentrations. The ligands were added on days 0, 4, 7 and 9 and the experiment terminated on day 11. On each plate, 2 wells served as untreated controls, and 2 received suramin at […] as a standard angiogenesis inhibitor. Each concentration of ligand was assayed in triplicate. On day 11, the wells were washed, and the endothelial cells fixed and stained with anti-CD31 (PECAM-1) antibody and visualised with alkaline phosphatase conjugated second antibody. The cultures were scanned for image analysis and quantitation using a DataCell image analysis system and ImagePro software. Angiogenesis was expressed as the area and/or perimeter of “pseudocapillaries” formed in the gel by the endothelial cells.

[3] = Pharmacokinetics in mice (LCMS of plasma, liver, spleen); assay type: in vivo, Balb/C mice
Method: Prior to undertaking any in vivo experiments with Rimcazole to study effects on tumour growth and angiogenesis, it was necessary to determine its pharmacokinetics in order that doses in the active range could be administered. Rimcazole (dissolved in water) was administered at 40 mg/kg i.p to Balb/C mice. Heparinised blood samples were taken at 5, 15 and 30 minutes, 1,2,4,6, and 24 hours and plasma separated. Tissue samples were also taken at some time points for analysis. Rimcazole samples were initially analysed by LCMS.
Column: Supelco 50×4.6 mm ABZ+ with 5 μ packing.
Mobile phase: A=HPLC grade methanol, B=0.1% formic acid in water.
Full scan mode: mass range analysed 50 to 850 amu.
MSMS mode: filtered ions were 322 (Rimcazole), 338 (Rimcazole+oxygen), and 514 (glucuronide of 338 metabolite).

sponge angiogenesis = test: Mouse sponge angiogenesis model (triple radiotracer); assay type: in vivo, Balb/C mice; conditions: 30 mg/kg i.p. daily, all time points, FIG. 7a
Description: In order to study neoangiogenesis in the absence of tumours, sterile polyether sponges were implanted into animals. This technique, developed in Cambridge, has been widely used to study angiogenesis. We have employed a triple radiotracer technique to study different aspects of the angiogenic process.
Balb/C mice were implanted bilaterally s.c. with sterile 7 mm diameter polyether sponges on days -5, -12 and -16 days prior to termination (5-6 mice per group). The mice were given Lugol's solution (KI) for 3 days prior to injection of radionuclides to prevent uptake of iodine in the thyroid. 24 hours before termination, the mice were injected i.v with […] [131-I] 5′-iodo-2′-deoxyuridine (IudR). One hour prior to termination the mice were injected with 2 XCi 2-deoxy-D-(1-[H3]glucose (DG) and 2 minutes prior to termination 2XCi [Tc-99m]-exametazine (HMPAO).
The IudR uptake reflects cell proliferation (primarily endothelial cells and also a small proportion of the inflammatory cells which provide the angiogenic growth factors); the DG measures cellular glucose metabolism, and the HMPAO gives a measure of blood flow. All can be taken as separate indices of the degree of vascularisation of the sponge implants. Mice were treated i.p. daily with Rimcazole (30 mg/kg) from the day of sponge implantation, or vehicle alone.

[4] = test system: MDA MB 435 human breast carcinoma xenografts; test: MDA MB 435 breast carcinoma xenograft growth and angiogenesis; assay type: in vivo, NCr athymic mice; conditions: for Tumour growth (increase in volume relative to start of treatment): FIG. 8a
Method: MDA MB 435 human breast carcinoma cells (as a model of hormone-insensitive disease) were grown in tissue culture to 70% confluence, harvested with trypsin:EDTA, washed, resuspended in DMEM and injected bilaterally into the inguinal fat pads of 6 week old female NCr athymic mice (orthotopic site) at 1.5×10^6 cells in 50 μl. The mice were housed in filter boxes in […] laminar flow cabinets and fed sterilized food and water. All procedures were carried out in class 1 laminar flow hoods using sterile equipment and reagents. On day 7, the tumours were measured with vernier calipers across two perpendicular diameters, and the mice were randomised into experimental groups and treated as follows: 1. […] 2. […] 3. Rimcazole 15 mg/kg/day (as above). […] The preparations were made up freshly each day, and the animals dosed intraperitoneally for 24 days. Animals were observed daily and weighed regularly to check that there were no adverse effects of treatment. […] Differences in growth were compared using the Mann-Whitney U test. At termination of the experiment the mice were killed and tumours excised and weighed. Blood, liver and tumour samples were snap frozen for analysis of drug levels by LCMS/MS. Tumour samples were also cryopreserved, and sections cut and stained with MECA-32 (Developmental Studies Hybridoma Unit; rat anti mouse endothelium) visualised with HRP conjugated goat-anti rat (Star 72, Serotec) to estimate blood vessel density.

[5] = test system: human adult dermal fibroblasts; test: MTS cell viability/proliferation assay, dermal fibroblasts; assay type: cell-based
Description: (Tissue in all cases was from healthy donors). […] Primary cell types included:
Cell density was checked microscopically at time zero.

## C[C@@H]1CN(CCCn2c3ccccc3c3ccccc32)C[C@H](C)N1 [Rimcazole, cis-9-[3,5-dimethyl-1-piperazinyl) propyl]carbazole dihydrochloride]
[1]
  IC50: < 5 µM
[2]; 4 μM, FIG. 5c
  Inhibition of in vitro angiogenesis: complete inhibition of angiogenesis
[2]; FIG. 4, 5a, 5b angiogenesis area
  Inhibition of pseudocapillary formation (in vitro angiogenesis): very effective in inhibiting
[3]; Rimcazole 40 mg/kg i.p., mice, spleen and liver
  Tissue levels relative to plasma: higher in spleen and liver than in plasma
[3]; once daily dosing at 40 mg/kg
  Plasma levels relative to IC50: plasma levels above the IC50 for a significant period
Sponge angiogenesis
  Cell proliferation (IUdR), cellular metabolism (DG) and blood flow (HMPAO) in sponge implants: reduction
[4]; 15 mg/kg dose, FIG. 8b
  Weights of excised tumours: did not achieve statistical significance
[4]; 15 mg/kg/day i.p. for 24 days, p=0.0228 Mann-Whitney U test
  Tumour growth (increase in volume relative to start of treatment): significant tumour growth retardation
[4]; 30 mg/kg/day i.p. for 24 days, p=0.0436 Mann-Whitney U test
  Tumour growth (increase in volume relative to start of treatment): significant tumour growth retardation
[4]; 30 mg/kg/day, p=0.0239, FIG. 8b
  Weights of excised tumours: significantly less
[4]; 15 and 30 mg/kg/day for 24 days, data not shown
  Health and body weight gain of mice during therapy: remained healthy throughout therapy and gained weight at the same rate as controls
[4]; both doses (15 and 30 mg/kg/day), FIG. 8c
  Vascular density in excised tumours: significantly inhibited
[5]; 10 micromolar, up to 48 hours, FIG. 9
  Survival and proliferation (MTS): continued to proliferate vigorously
[5]; 100 micromolar to 1 nanomolar, FIG. 10
  Tolerance of fibroblasts over a range of concentrations (MTS): remarkably resistant
